Experimental data from paper PMC4234429 (Journal of Medicinal Chemistry, 2014).
Bridge positions count the residues as written; N and C are the ends. Square brackets hold non-standard residues; d marks the D form. Peptide text beside a SMILES is read from it. Nle = CCCC[C@H](N)C(=O)O; βAla = NCCC(=O)O

Experiment: RP-HPLC capacity factor
Assay type: physicochemical
Settings: Grace Vydac C-18, 20 min gradient of 18–28% acetonitrile in 20 mM HCl, 1 mL/min

SMILES | capacity factor (k′)
CC(C)[C@H](NC(=O)[C@@H]1CCCN1C(=O)[C@H](CCCNC(=N)N)NC(=O)[C@H](CS)NC(=O)[C@H](Cc1c[nH]c2ccccc12)NC(=O)[C@H](CCCNC(=N)N)NC(=O)[C@@H](Cc1ccccc1)NC(=O)[C@H](Cc1c[nH]cn1)NC(=O)[C@H](CCC(=O)O)NC(=O)[C@H](CS)NC(=O)[C@H](CS)NC(=O)CCNC(=O)[C@@H]1CC(=O)N[C@@H](CCCNC(=N)N)C(=O)N[C@@H](CO)C(=O)N[C@@H](CC(=O)O)C(=O)N[C@H](Cc2ccc(O)cc2)C(=O)N1)C(N)=O [peptide 1, RSD-β-Ala-(Arg^11)CCMSH] (RSD[dY]D[βAla]CCEH[dF]RWCRPV-NH2; lactam N-5) | 1.35
CC(C)[C@H](NC(=O)[C@@H]1CCCN1C(=O)[C@H](CCCNC(=N)N)NC(=O)[C@H](CS)NC(=O)[C@H](Cc1c[nH]c2ccccc12)NC(=O)[C@H](CCCNC(=N)N)NC(=O)[C@@H](Cc1ccccc1)NC(=O)[C@H](Cc1c[nH]cn1)NC(=O)[C@H](CCC(=O)O)NC(=O)[C@H](CS)NC(=O)[C@H](CS)NC(=O)CCNC(=O)[C@@H]1CC(=O)N[C@@H](CCC(=O)O)C(=O)N[C@@H](C)C(=O)N[C@@H](CC(=O)O)C(=O)N[C@H](Cc2ccc(O)cc2)C(=O)N1)C(N)=O [peptide 6, EAD-β-Ala-(Arg^11)CCMSH] (EAD[dY]D[βAla]CCEH[dF]RWCRPV-NH2; lactam N-5) | 2.28
CCCC[C@@H]1NC(=O)C[C@@H](C(=O)NCCC(=O)N[C@@H](CS)C(=O)N[C@@H](CS)C(=O)N[C@@H](CCC(=O)O)C(=O)N[C@@H](Cc2c[nH]cn2)C(=O)N[C@H](Cc2ccccc2)C(=O)N[C@@H](CCCNC(=N)N)C(=O)N[C@@H](Cc2c[nH]c3ccccc23)C(=O)N[C@@H](CS)C(=O)N[C@@H](CCCNC(=N)N)C(=O)N2CCC[C@H]2C(=O)N[C@H](C(N)=O)C(C)C)NC(=O)[C@@H](Cc2ccc(O)cc2)NC(=O)[C@H](CC(=O)O)NC(=O)[C@H](C)NC1=O [peptide 5, NAD-β-Ala-(Arg^11)CCMSH] ([Nle]AD[dY]D[βAla]CCEH[dF]RWCRPV-NH2; lactam N-5) | 3.17

Continued, values first:

capacity factor (k′) | SMILES
1.94 | CC(C)[C@H](NC(=O)[C@@H]1CCCN1C(=O)[C@H](CCCNC(=N)N)NC(=O)[C@H](CS)NC(=O)[C@H](Cc1c[nH]c2ccccc12)NC(=O)[C@H](CCCNC(=N)N)NC(=O)[C@@H](Cc1ccccc1)NC(=O)[C@H](Cc1c[nH]cn1)NC(=O)[C@H](CCC(=O)O)NC(=O)[C@H](CS)NC(=O)[C@H](CS)NC(=O)CCNC(=O)[C@@H]1CC(=O)N[C@@H](CCCNC(=N)N)C(=O)N[C@@H](C(C)C)C(=O)N[C@@H](CC(=O)O)C(=O)N[C@H](Cc2ccc(O)cc2)C(=O)N1)C(N)=O [peptide 3, RVD-β-Ala-(Arg^11)CCMSH] (RVD[dY]D[βAla]CCEH[dF]RWCRPV-NH2; lactam N-5)
0.98 | CC(C)[C@H](NC(=O)[C@@H]1CCCN1C(=O)[C@H](CCCNC(=N)N)NC(=O)[C@H](CS)NC(=O)[C@H](Cc1c[nH]c2ccccc12)NC(=O)[C@H](CCCNC(=N)N)NC(=O)[C@@H](Cc1ccccc1)NC(=O)[C@H](Cc1c[nH]cn1)NC(=O)[C@H](CCC(=O)O)NC(=O)[C@H](CS)NC(=O)[C@H](CS)NC(=O)CCNC(=O)[C@@H]1CC(=O)N[C@@H](CCCNC(=N)N)C(=O)N[C@@H]([C@@H](C)O)C(=O)N[C@@H](CC(=O)O)C(=O)N[C@H](Cc2ccc(O)cc2)C(=O)N1)C(N)=O [peptide 2, RTD-β-Ala-(Arg^11)CCMSH] (RTD[dY]D[βAla]CCEH[dF]RWCRPV-NH2; lactam N-5)
3.32 | CC(C)[C@H](NC(=O)[C@@H]1CCCN1C(=O)[C@H](CCCNC(=N)N)NC(=O)[C@H](CS)NC(=O)[C@H](Cc1c[nH]c2ccccc12)NC(=O)[C@H](CCCNC(=N)N)NC(=O)[C@@H](Cc1ccccc1)NC(=O)[C@H](Cc1c[nH]cn1)NC(=O)[C@H](CCC(=O)O)NC(=O)[C@H](CS)NC(=O)[C@H](CS)NC(=O)CCNC(=O)[C@@H]1CC(=O)N[C@@H](CCCNC(=N)N)C(=O)N[C@@H](C)C(=O)N[C@@H](CC(=O)O)C(=O)N[C@H](Cc2ccc(O)cc2)C(=O)N1)C(N)=O [peptide 4, RAD-β-Ala-(Arg^11)CCMSH] (RAD[dY]D[βAla]CCEH[dF]RWCRPV-NH2; lactam N-5)
